Source: patent US20120190566A1, “COMPOSITIONS AND METHODS FOR INHIBITING BIOFILMS” (priority 2009, published 2012)

Columns and labels:
curli = curli (Escherichia coli, UniProt P28307); assay: Inhibition of curli assembly (FIG. 4); type: biochemical; conditions: in the presence of compound
Source text: DAPH-12 (top) blocks tyrosine stacking, while Amphotericin B (bottom) binds to the edge strands and prevents amyloid assembly.

CsgA = CsgA (Escherichia coli, UniProt P28307); conditions: peptides immobilized on glass slide; recombinant CsgA ~2 μm, about 10% labeled with ALEXA-647; stringent wash
CsgA, sequence (P28307 21-151): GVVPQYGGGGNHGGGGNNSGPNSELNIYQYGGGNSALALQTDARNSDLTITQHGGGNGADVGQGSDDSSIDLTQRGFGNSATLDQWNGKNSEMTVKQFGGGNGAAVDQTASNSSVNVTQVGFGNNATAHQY
Procedure: Peptide array synthesis, hybridization and quantification. […] Each peptide spot (250 μM in diameter) is printed with 3 drops of 0.5 nL of peptide solution at a concentration of approximately 2.5 μM using non-contact printing (JPT Peptide Technologies GmbH). The unreacted peptides are removed from the hydrogel slides, dried and then the slides are blocked with 3% BSA in PBST for 1 hr. CsgA proteins are denatured in 6 M GuHCl at 100° C. for approximately 20 minutes, diluted 125 times in PBST containing 3% BSA to a final concentration of 1-5 μM and a label ratio of 5-75%. A single peptide array is incubated with approximately 2-3 mL of diluted CsgA using an ATLAS™ hybridization chamber (BD Biociences) without mixing for a given period of time. The peptide arrays are then washed 5 times with 50 mL of 2% SDS for 30 minutes, 5 times with 50 mL of water, 3 times with 50 mL of methanol and then spun dry. […] The arrays are imaged using a GENEPIX® 4000A scanner and the median values for the peptide spots of two to three replicates are quantified using GENEPIX® Pro 6.0 software (Molecular Devices).
Denatured peptides were arrayed on reactive glass slides and their interaction with soluble, fluorescently labeled CsgA was studied.
A peptide library of CsgB sequences was generated and immobilized on a glass slide essentially as described above. […]

curli, sequence (P28307 21-151): as above

## COc1ccc(Nc2cc3c(cc2Nc2ccc(OC)cc2)C(=O)NC3=O)cc1 [DAPH-12]
curli
  inhibition of curli assembly: inhibition of curli assembly

## GTQKTAIVVQRQSQMAIRVT [SEQ ID NO: 2]
CsgA
  nucleation of assembly of soluble, fluorescently labeled CsgA by arrayed peptides: nucleate assembly of CsgA

## C[C@@H]1[C@H](O)[C@@H](C)/C=C/C=C/C=C/C=C/C=C/C=C/C=C/[C@H](O[C@@H]2O[C@H](C)[C@@H](O)[C@H](N)[C@@H]2O)C[C@@H]2O[C@](O)(C[C@@H](O)C[C@@H](O)[C@H](O)CC[C@@H](O)C[C@@H](O)CC(=O)O[C@H]1C)C[C@H](O)[C@H]2C(=O)O [Amphotericin B]
curli
  inhibition of curli assembly: inhibition of curli assembly

## LRQGGSKLLAVVAQEGSSNRAK [SEQ ID NO: 1]
CsgA
  nucleation of assembly of soluble, fluorescently labeled CsgA by arrayed peptides: nucleate assembly of CsgA
